Source: patent US20260356841A1, “HETEROCYCLIC PYRIDINONE COMPOUNDS AS TRIGGERING RECEPTOR EXPRESSED ON MYELOID CELLS 2 AGONISTS AND METHODS OF USE” (Vigil Neuroscience, Inc., priority 2023, published 2026)

biological target: T1, human TREM2 (Homo sapiens, UniProt Q9NZC2); experiment: TREM2 agonist potency by cellular phosphorylation of Spleen Tyrosine Kinase (Syk), AlphaLisa, HEK293T-hTREM2 cells; type: cell-based; settings: hTREM2 EC50 Data (HEK293 Cells); Syk phosphorylation, AlphaLisa; read-out: hTREM2 EC50
T1 construct: expressed in transfected cells; host or cells: HEK293T (HEK293T-hTREM2 cells)
T1 sequence (Q9NZC2 19-230): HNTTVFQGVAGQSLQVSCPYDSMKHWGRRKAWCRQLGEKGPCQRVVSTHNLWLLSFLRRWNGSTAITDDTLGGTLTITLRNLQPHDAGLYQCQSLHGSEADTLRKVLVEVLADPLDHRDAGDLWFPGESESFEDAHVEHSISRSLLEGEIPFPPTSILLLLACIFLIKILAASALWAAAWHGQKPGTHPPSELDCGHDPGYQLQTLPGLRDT
T1 sequence (O43914 22-113 partner): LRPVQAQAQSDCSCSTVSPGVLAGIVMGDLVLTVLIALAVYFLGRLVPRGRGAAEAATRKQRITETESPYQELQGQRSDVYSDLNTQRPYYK
Procedure: Measurement of TREM2 agonist potency was done using a HEK cell line expressing human TREM2 and DAP12 (HEK293T-hTREM2 cells). Binding of small molecules to, and activation of, TREM2 increases the phosphorylation of Syk. The resultant levels of Syk phosphorylation are measured using a commercial AlphaLisa reagent kit. To perform the assay, HEK-hTREM2 cells were plated at 14,000 cells per well in a 384 well plate, in 25 μL of complete growth media and incubated at 37° C., 5% CO2 for 20-24 hours.
Prior to the assay, test compounds were diluted in the 384 well plates in assay buffer and allowed to equilibrate for 30 minutes. Growth media was removed from cell plates by inversion on blotting paper, and 25 μL of test articles in assay buffer was added to cells. Cells were incubated for 45 minutes at room temperature. After 45 minutes, assay buffer was removed and 10 μL of lysis buffer was added. Plates were shaken for 20 minutes at 350 RPM at room temperature. After complete lysis, AlphaLisa reagents were added to the lysate, and fluorescence intensity was measured using a Perkin Elmer Envision plate reader. Intensities were used to generate a standard curve, and % activation was calculated. Curve fitting was performed using Prism v9 software, log (agonist) vs response-variable slope (four parameters), and EC50s were calculated from the curve fit.
The results presented in Table B have been generated with the in vitro assay described above. This assay may be used to test any of the compounds described herein to assess and characterize a compound's ability to act as an agonist of TREM2.

| SMILES | EC50 [nM] |
| --- | --- |
| Cc1nc2nc([C@H]3CCO[C@@H](c4ccc(=O)n(C)c4)C3)nc(C34CC(C(F)F)(C3)C4)c2nc1C [Example 31, 5-[(2R,4S)-4-[4-[3-(difluoromethyl)-1-bicyclo[1.1.1]-pentanyl]-6,7-dimethyl-pteridin-2-yl]-tetrahydropyran-2-yl]-1-methyl-pyridin-2-one] | < 100 |
| Cc1nc2nc([C@@H]3CCO[C@H](c4ccc(=O)n(C)c4)C3)nc(C34CC(C(F)F)(C3)C4)c2nc1C [Example 32, 5-[(2S,4R)-4-[4-[3-(difluoromethyl)-1-bicyclo[1.1.1]-pentanyl]-6,7-dimethyl-pteridin-2-yl]tetrahydropyran-2-yl]-1-methyl-pyridin-2-one] | 100 to 500 |
| Cc1nc2nc([C@H]3CCO[C@@H](c4ccc(=O)[nH]c4)C3)nc(C34CC(C(F)(F)F)(C3)C4)c2nc1C [Example 34, 5-[(2R,4S)-4-[6,7-dimethyl-4-[3-(trifluoromethyl)-1-bicyclo[1.1.1]pentanyl]pteridin-2-yl]tetrahydropyran-2-yl]-1H-pyridin-2-one] | < 100 |
| [2H]C([2H])([2H])n1cc([C@H]2C[C@@H](c3nc(C45CC(C(F)(F)F)(C4)C5)c4nc(C)c(C)nc4n3)CCO2)ccc1=O [Example 36] | < 100 |
| Cc1nc2nc([C@H]3CCO[C@@H](c4ccc(=O)n(C)c4)C3)nc(C34CC(C(C)(F)F)(C3)C4)c2nc1C [Example 38, 5-[(2R,4S)-4-[4-[3-(1,1-difluoroethyl)-1-bicyclo[1.1.1]pentanyl]-6,7-dimethyl-pteridin-2-yl]tetrahydropyran-2-yl]-1-methyl-pyridin-2-one] | < 100 |
| Cc1nc2nc([C@H]3CCO[C@@H](c4ccc(=O)n(C)c4)C3)nc([C@H]3CC[C@H](F)CC3)c2nc1C [Example 42, 5-((2R,4S)-4-(4-((1r,4S)-4-fluorocyclohexyl)-6,7-dimethyl-pteridin-2-yl)tetrahydro-2H-pyran-2-yl)-1-methylpyridin-2(1H)-one] | < 100 |
| Cc1nc2nc([C@H]3CCO[C@@H](c4ccc(=O)n(C)c4)C3)nc([C@H]3CC[C@@H](F)CC3)c2nc1C [Example 43, 5-((2R,4S)-4-(4-((1s,4R)-4-fluorocyclohexyl)-6,7-dimethylpteridin-2-yl)tetrahydro-2H-pyran-2-yl)-1-methylpyridin-2(1H)-one] | < 100 |
| Cc1nc2nc([C@H]3CCO[C@@H](c4ccc(=O)n(C)c4)C3)nc(C34CC(CC(F)F)(C3)C4)c2nc1C [Example 46, 5-[(2R,4S)-4-[4-[3-(2,2-difluoroethyl)-1-bicyclo[1.1.1]pentanyl]-6,7-dimethyl-pteridin-2-yl]tetrahydropyran-2-yl]-1-methyl-pyridin-2-one] | < 100 |
| Cc1nc2nc([C@H]3CCO[C@@H](c4ccc(=O)n(C)c4)C3)nc(C34CC(CCF)(C3)C4)c2nc1C [Example 48, 5-((2R,4S)-4-(4-(3-(2-fluoroethyl)bicyclo[1.1.1]pentan-1-yl)-6,7-dimethylpteridin-2-yl)tetrahydro-2H-pyran-2-yl)-1-methylpyridin-2(1H)-one] | < 100 |
| Cc1nc2nc([C@H]3CCO[C@@H](c4ccc(=O)n(C)c4)C3)nc(C3CCC(CF)CC3)c2nc1C (stereo partly drawn) [Example 50, 5-[(2R,4S)-4-[4-[4-(fluoromethyl)-cyclohexyl]-6,7-dimethyl-pteridin-2-yl]tetrahydropyran-2-yl]-1-methyl-pyridin-2-one] | < 100 |
| Cc1nc2nc([C@H]3CCO[C@@H](c4ccc(=O)n(C)c4)C3)nc(C34CC(C(C)(C)F)(C3)C4)c2nc1C [Example 52, 5-[(2R,4S)-4-[4-[3-(1-fluoro-1-methyl-ethyl)-1-bicyclo[1.1.1]pentanyl]-6,7-dimethyl-pteridin-2-yl]tetrahydropyran-2-yl]-1-methyl-pyridin-2-one] | < 100 |
| Cc1nc2nc([C@H]3CCO[C@@H](c4ccc(=O)n(C)c4)C3)nc(C34CC(CC(F)(F)F)(C3)C4)c2nc1C [Example 54, 5-[(2R,4S)-4-[6,7-dimethyl-4-[3-(2,2,2-trifluoroethyl)-1-bicyclo[1.1.1]pentanyl]pteridin-2-yl]tetrahydro-2H-pyran-2-yl]-1-methyl-pyridin-2(1H)-one] | < 100 |
